Data on one molecule can be found in BindingDB's records for patent US10851102 (Theravance Biopharma R&D Ip, 2020).

Test [1] deals with Tyrosine-protein kinase JAK2 (Homo sapiens, UniProt O60674).
Test [2] deals with T1, Tyrosine-protein kinase JAK3 (Homo sapiens, UniProt P52333).
T1 sequence (P52333 whole entry): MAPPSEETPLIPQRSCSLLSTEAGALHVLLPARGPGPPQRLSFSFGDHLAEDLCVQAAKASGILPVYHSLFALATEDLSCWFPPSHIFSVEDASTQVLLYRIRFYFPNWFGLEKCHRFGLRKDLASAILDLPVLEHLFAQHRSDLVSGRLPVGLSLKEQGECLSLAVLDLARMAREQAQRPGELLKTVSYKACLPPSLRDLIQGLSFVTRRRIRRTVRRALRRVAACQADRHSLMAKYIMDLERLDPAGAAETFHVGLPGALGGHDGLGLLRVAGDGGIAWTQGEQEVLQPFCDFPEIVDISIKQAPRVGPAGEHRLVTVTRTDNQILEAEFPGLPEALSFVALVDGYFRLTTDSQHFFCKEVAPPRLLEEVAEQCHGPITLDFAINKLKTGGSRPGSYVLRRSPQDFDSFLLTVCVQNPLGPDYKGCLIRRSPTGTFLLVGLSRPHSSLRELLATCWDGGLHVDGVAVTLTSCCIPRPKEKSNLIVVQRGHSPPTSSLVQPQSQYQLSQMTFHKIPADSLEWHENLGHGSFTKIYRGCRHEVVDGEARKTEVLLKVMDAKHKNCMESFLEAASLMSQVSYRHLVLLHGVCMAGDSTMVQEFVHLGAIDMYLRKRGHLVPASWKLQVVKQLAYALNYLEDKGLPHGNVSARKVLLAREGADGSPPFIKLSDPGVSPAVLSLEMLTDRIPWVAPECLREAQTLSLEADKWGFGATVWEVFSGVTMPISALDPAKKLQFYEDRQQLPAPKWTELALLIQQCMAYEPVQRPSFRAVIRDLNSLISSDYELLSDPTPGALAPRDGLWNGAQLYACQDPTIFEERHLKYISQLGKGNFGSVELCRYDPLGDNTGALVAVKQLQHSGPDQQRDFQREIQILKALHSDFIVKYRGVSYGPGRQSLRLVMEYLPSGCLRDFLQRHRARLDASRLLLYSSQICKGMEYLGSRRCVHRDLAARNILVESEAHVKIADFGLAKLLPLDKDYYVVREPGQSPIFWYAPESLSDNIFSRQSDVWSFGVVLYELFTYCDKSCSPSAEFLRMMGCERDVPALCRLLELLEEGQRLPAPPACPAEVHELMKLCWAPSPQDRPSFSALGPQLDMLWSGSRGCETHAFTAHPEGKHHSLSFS

For test [3], the target named is Non-receptor tyrosine-protein kinase TYK2 (Homo sapiens, UniProt P29597).

Some results are limits rather than exact numbers.

Non-receptor tyrosine-protein kinase TYK2, sequence (P29597 whole entry): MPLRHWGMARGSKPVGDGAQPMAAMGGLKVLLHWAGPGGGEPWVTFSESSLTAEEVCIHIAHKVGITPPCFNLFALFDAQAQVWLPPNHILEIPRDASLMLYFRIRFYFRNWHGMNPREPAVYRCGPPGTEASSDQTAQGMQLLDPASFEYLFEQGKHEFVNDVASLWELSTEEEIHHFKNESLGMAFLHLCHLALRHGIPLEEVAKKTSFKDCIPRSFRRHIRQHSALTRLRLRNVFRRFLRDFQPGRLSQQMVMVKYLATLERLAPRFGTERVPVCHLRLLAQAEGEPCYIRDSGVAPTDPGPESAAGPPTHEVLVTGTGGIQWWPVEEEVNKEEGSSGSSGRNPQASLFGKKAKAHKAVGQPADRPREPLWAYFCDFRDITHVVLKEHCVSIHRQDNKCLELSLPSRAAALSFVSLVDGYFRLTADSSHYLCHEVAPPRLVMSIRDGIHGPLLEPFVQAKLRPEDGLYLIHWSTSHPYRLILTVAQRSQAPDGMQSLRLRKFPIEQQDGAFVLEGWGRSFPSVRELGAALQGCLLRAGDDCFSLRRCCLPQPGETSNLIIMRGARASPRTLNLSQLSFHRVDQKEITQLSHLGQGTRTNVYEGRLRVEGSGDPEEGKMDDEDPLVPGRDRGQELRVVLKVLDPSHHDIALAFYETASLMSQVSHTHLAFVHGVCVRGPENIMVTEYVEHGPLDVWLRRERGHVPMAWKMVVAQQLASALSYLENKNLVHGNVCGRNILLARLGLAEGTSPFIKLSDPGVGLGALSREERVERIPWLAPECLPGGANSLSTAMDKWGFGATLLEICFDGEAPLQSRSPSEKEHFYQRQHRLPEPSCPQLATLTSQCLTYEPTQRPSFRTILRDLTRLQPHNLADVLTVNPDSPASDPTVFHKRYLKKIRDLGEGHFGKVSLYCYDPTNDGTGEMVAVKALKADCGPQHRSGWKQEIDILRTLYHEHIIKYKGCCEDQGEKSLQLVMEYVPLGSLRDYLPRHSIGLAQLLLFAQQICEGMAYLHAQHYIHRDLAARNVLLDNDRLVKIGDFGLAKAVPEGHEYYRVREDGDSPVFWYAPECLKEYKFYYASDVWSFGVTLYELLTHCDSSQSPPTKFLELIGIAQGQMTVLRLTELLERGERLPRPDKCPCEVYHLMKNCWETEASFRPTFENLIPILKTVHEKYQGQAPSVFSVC
Tyrosine-protein kinase JAK2, sequence (O60674 whole entry): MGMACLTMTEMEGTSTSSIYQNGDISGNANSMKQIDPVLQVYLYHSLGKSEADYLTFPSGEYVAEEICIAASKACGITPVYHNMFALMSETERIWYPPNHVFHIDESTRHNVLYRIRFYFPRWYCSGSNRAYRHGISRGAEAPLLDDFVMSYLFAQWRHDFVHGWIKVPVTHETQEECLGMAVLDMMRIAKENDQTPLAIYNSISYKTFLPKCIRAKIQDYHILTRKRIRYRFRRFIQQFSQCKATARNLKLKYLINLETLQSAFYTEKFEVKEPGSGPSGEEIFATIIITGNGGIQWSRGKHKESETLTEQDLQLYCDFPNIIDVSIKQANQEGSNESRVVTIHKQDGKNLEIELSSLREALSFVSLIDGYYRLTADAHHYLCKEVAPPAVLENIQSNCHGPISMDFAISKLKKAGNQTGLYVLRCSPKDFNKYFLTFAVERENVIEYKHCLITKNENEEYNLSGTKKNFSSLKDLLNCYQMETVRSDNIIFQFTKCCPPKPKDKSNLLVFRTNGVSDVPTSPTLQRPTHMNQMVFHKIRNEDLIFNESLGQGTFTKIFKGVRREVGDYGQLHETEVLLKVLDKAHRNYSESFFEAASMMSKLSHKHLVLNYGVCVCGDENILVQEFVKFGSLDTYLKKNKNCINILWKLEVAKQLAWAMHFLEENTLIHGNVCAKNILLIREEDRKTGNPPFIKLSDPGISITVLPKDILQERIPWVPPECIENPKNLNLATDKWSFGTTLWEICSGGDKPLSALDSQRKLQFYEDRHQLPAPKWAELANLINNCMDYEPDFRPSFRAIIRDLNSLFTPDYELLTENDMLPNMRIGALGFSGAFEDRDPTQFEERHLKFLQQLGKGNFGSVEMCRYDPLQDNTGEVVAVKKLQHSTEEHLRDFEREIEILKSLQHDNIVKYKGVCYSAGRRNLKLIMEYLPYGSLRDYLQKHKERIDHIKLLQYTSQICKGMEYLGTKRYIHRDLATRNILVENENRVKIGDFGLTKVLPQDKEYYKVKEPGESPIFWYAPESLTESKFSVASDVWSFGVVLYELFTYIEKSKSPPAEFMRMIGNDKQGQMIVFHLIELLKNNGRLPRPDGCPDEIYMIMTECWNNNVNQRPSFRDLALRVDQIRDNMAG

For the molecule `C=CC(=O)N1[C@@H]2CC[C@H]1C[C@H](Oc1cc(-c3ccc(O)cc3)cn3cncc13)C2` [US10851102, Example 10], the values for the Ki in test [1], in test [2] and in test [3] were > 100 nM, < 0.1 nM and > 100 nM, respectively.
